# Data taken from patent US8957083B2, “Spiro-amino-imidazolone and spiro-amino-dihydro-pyrimidinone compounds as beta-secretase modulators and methods of use” (Amgen Inc., priority 2010, dated 2015).
# Where two headings read alike, the source gives them in different places.
# Tests used:
# [1] = molecular target: BACE 1 (Beta Secretase enzyme) (Homo sapiens (Human), UniProt P56817); experiment: In vitro enzymatic BACE FRET assay; format: biochemical; settings: enzyme 0.2 nM, FRET substrate 50 nM, pH 4.2
# BACE 1 (Beta Secretase enzyme), sequence (P56817 46-501): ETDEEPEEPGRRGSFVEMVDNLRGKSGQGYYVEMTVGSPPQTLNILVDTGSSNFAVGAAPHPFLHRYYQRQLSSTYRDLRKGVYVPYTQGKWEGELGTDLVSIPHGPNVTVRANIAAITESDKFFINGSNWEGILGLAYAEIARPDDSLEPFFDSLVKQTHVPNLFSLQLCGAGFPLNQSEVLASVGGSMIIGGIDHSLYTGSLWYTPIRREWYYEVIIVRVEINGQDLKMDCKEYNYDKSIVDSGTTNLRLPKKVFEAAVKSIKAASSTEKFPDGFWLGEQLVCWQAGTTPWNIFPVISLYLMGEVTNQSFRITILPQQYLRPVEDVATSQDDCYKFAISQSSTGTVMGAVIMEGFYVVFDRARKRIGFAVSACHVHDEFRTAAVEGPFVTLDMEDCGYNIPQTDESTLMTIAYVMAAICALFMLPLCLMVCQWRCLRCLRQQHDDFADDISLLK
# Experimental: In Vitro Enzymatic BACE FRET (Fluorescence Resonance Energy Transfer) Assay (Enzyme Assay Data in the Example Table I)
# The assay buffer used in this screen is 0.05 M acetate, pH 4.2, 10% DMSO final, 100 uM genapol (which is a nonionic detergent, below its Critical Micelle Concentration). […] This assay is effectively started by the addition of FRET substrate (50 nM) and the combination is incubated for one hour. The FRET assay is terminated with by addition of Tris buffer, which raises the pH to neutrality, and the fluorescence is determined. The FRET substrate is a peptide with commercially available fluorophore and quencher, on opposite sides of the BACE cleavage site. Proteolytic cleavage of the FRET substrate releases quenching of fluorescence (excitation […] and […]).
# [2] = tested on: Aβ40 in conditioned medium of cells expressing amyloid precursor protein; experiment: In vitro BACE cell-based assay (HEK cell assay), Aβ40 sandwich ELISA; settings: Aβ40 in supernatant after 24 h incubation
# Experimental: In Vitro BACE Cell-Based Assay
# The cell-based assay measures inhibition or reduction of Aβ40 in conditioned medium of test compound treated cells expressing amyloid precursor protein.
# Cells stably expressing Amyloid Precursor Protein (APP) were plated at a density of 40K cells/well in 96 well plates (Costar). The cells were cultivated for 24 hours at 37° C. and 5% CO2 in DMEM supplemented with 10% FBS. The test compounds were then added to cells in 10-point dose response concentrations with the starting concentration being either 100 μM or 10 μM. The compounds were diluted from stock solutions in DMSO and the final DMSO concentration of the test compounds on cells was 0.1%. After 24 h of incubation with the test compounds the supernatant conditioned media was collected and the Aβ 40 levels were determined using a sandwich ELISA. The IC50 of the compound was calculated from the percent of control or percent inhibition of Aβ 40 as a function of the concentration of the test compound.
# The sandwich ELISA to detect Aβ 40 was performed in 96 well microtiter plates, which were pre-treated with goat anti-rabbit IgG (Pierce). The capture and detecting antibody pair that were used to detect Aβ 40 from cell supernatants were affinity purified pAb40 (Biosource) and biotinylated 6E10 (Signet Labs Inc.), respectively. The optimal concentration for the pAb40 antibody was 3 μg/ml in Superblock/TBS (Pierce) that was supplemented with 0.05% Tween 20 (Sigma).
# Cellular supernatants were incubated with the capture antibody for 3 h at 4° C., followed by 3 wash steps in TBS-tween (0.05%). The detecting antibody incubation was for 2 h at 4° C., again followed by the wash steps as described previously. The final readout of the ELISA is Time-Resolved Fluorescence (counts per minute) using Delfia reagents Streptavidin-Europium and Enhancement solutions (Perkin Elmer) and the Victor 2 multilabel counter (Perkin Elmer).
# [3] = average IC50, read-out: BACE 1 FRET assay
# [4] = Homo sapiens, HEK293, 24 h, average IC50, read-out: HEK cell assay
# [5] = average IC50, read-out: HEK cell assay
# [6] = class symbols, read-out: BACE 1 FRET assay (IC50 class)
# [7] = Homo sapiens, HEK293, 24 h, class symbols, read-out: HEK cell assay (IC50 class)
SMILES,"IC50 [1, 3] [nM]","IC50 [2, 4] [nM]","IC50 [2, 5] [nM]","IC50 [1, 6] [nM]","IC50 [2, 7] [nM]"
"CN1C(=O)C[C@@]2(N=C1N)c1cc(-c3cccnc3F)ccc1Oc1cnc(C3=CCCOC3)cc12 [Example 25, (R)-2′-amino-3-(5,6-dihydro-2H-pyran-3-yl)-7-(2-fluoropyridin-3-yl)-1′-methyl-1′H-spiro[chromeno[2,3-c]pyridine-5,4′-pyrimidin]-6′(5′H)-one]",2430,6170,,,
"Cc1ccc(-c2cc(F)c3c(c2)[C@]2(N=C(N)N(C)C2=O)c2cc(-c4cccc(Cl)c4)ccc2O3)cc1 (stereo in doubt) [Example 33, (4R)-2-amino-7′-(3-chlorophenyl)-4′-fluoro-1-methyl-2′-(4-methylphenyl)spiro[imidazole-4,9′-xanthen]-5(1H)-one, (4S)-2-amino-7′-(3-chlorophenyl)-4′-fluoro-1-methyl-2′-(4-methylphenyl)spiro[imidazole-4,9′-xanthen]-5(1H)-one]",4.1,,237,,
"CN1C(=N)N[C@]2(CC1=O)c1cc(Br)ccc1Oc1cnc(Cl)cc12 [Example 20-B, (R)-7-bromo-3-chloro-2′-imino-1′-methyl-2′,3′-dihydro-1′H-spiro[chromeno[2,3-c]pyridine-5,4′-pyrimidin]-6′(5′H)-one]",,,,> 1000,> 1000
"CN1C(=O)[C@]2(N=C1N)c1cc(-c3cccc(Cl)c3)ccc1Oc1c(F)cc(C3=CCOCC3)cc12 [Example 34, (4S)-2-amino-7′-(3-chlorophenyl)-2′-(3,6-dihydro-2H-pyran-4-yl)-4′-fluoro-1-methylspiro[imidazole-4,9′-xanthen]-5(1H)-one]",0.3,9.9,,,
"CN1C(=O)CC2(N=C1N)c1cc(-c3cccnc3F)ccc1Oc1c2cc(Cl)nc1F (stereo not shown) [Example 12, 2′-amino-3-chloro-1-fluoro-7-(2-fluoropyridin-3-yl)-1′-methyl-1′H-spiro[chromeno[2,3-c]pyridine-5,4′-pyrimidin]-6′(5′H)-one]",,,,100 to 1000,> 1000
"CN1C(=O)[C@@]2(N=C1N)c1cc(-c3cccnc3F)ccc1Oc1c(F)cc(-c3ccnc(F)c3)cc12 [Example 38, (4R)-2-amino-4′-fluoro-7′-(2-fluoro-3-pyridinyl)-2′-(2-fluoro-4-pyridinyl)-1-methylspiro[imidazole-4,9′-xanthen]-5(1H)-one]",,290,,,
"CC#Cc1cncc(-c2ccc3c(c2)[C@]2(N=C(N)N(C)C2=O)c2cc(C4=CCOCC4)cc(F)c2O3)c1 [Example 32, (4S)-2-amino-2′-(3,6-dihydro-2H-pyran-4-yl)-4′-fluoro-1-methyl-7′-(5-(1-propyn-1-yl)-3-pyridinyl)spiro[imidazole-4,9′-xanthen]-5(1H)-one]",0.5,,7.6,,
"CN1C(=N)NC2(CC1=O)c1cc(-c3cccnc3F)ccc1Oc1cnc(-c3cccnc3F)cc12 (stereo not shown) [Example 21, 3,7-bis(2-fluoropyridin-3-yl)-2′-imino-1′-methyl-2′,3′-dihydro-1′H-spiro[chromeno[2,3-c]pyridine-5,4′-pyrimidin]-6′(5′H)-one]",48.3,426,,,
"CC#Cc1cncc(-c2ccc3c(c2)[C@@]2(N=C(N)N(C)C2=O)c2cc(C4=CCOCC4)cc(F)c2O3)c1 [Example 31, (4R)-2-amino-2′-(3,6-dihydro-2H-pyran-4-yl)-4′-fluoro-1-methyl-7′-(5-(1-propyn-1-yl)-3-pyridinyl)spiro[imidazole-4,9′-xanthen]-5(1H)-one]",179,4410,,,
"CN1C(=O)CC2(N=C1N)c1cc(-c3cccnc3F)ccc1Oc1c2cc(-c2cccnc2F)nc1F (stereo not shown) [Example 13, 2′-amino-1-fluoro-3,7-bis(2-fluoropyridin-3-yl)-1′-methyl-1′H-spiro[chromeno[2,3-c]pyridine-5,4′-pyrimidin]-6′(5′H)-one]",22.8,154,,,
"CN1C(=N)N[C@@]2(CC1=O)c1cc(Br)ccc1Oc1cnc(Cl)cc12 [Example 20-A, (S)-7-bromo-3-chloro-2′-imino-1′-methyl-2′,3′-dihydro-1′H-spiro[chromeno[2,3-c]pyridine-5,4′-pyrimidin]-6′(5′H)-one]",,,,> 1000,> 1000
"Cc1ccc(-c2cc(F)c3c(c2)[C@]2(N=C(N)N(C)C2=O)c2cc(-c4cccc(Cl)c4)ccc2O3)cc1 [Example 36, (4R)-2-amino-7′-(3-chlorophenyl)-4′-fluoro-1-methyl-2′-(4-methylphenyl)spiro[imidazole-4,9′-xanthen]-5(1H)-one]",225,,> 10000,,
"CN1C(=O)CC2(N=C1N)c1cc(-c3cccnc3F)ccc1Oc1c2cc(C2=CCCOC2)nc1F (stereo not shown) [Example 16, 2′-amino-3-(5,6-dihydro-2H-pyran-3-yl)-1-fluoro-7-(2-fluoropyridin-3-yl)-1′-methyl-1′H-spiro[chromeno[2,3-c]pyridine-5,4′-pyrimidin]-6′(5′H)-one]",1.4,6.3,,,
"CN1C(=O)C[C@]2(N=C1N)c1cc(-c3cccnc3F)ccc1Oc1cnc(C3=CCCOC3)cc12 [Example 24, (S)-2′-amino-3-(5,6-dihydro-2H-pyran-3-yl)-7-(2-fluoropyridin-3-yl)-1′-methyl-1′H-spiro[chromeno[2,3-c]pyridine-5,4′-pyrimidin]-6′(5′H)-one]",12.1,52.3,,,
"COc1ccc2c(c1)[C@]1(N=C(N)N(C)C1=O)c1cc(-c3ccc(C)cc3)cc(F)c1O2 (mixture of isomers) [Example 29, (4R)-2-amino-4′-fluoro-7′-methoxy-1-methyl-2′-(4-methylphenyl)spiro[imidazole-4,9′-xanthen]-5(1H)-one and (4S)-2-amino-4′-fluoro-7′-methoxy-1-methyl-2′-(4-methylphenyl)spiro[imidazole-4,9′-xanthen]-5(1H)-one]",13.6,1970,,,
"CN1C(=O)C[C@]2(N=C1N)c1cc(-c3cccnc3F)ccc1Oc1c2cc(C2CCOC(C)(C)C2)nc1F (stereo partly drawn) [Example 28, (4′S)-2′-amino-3-(2,2-dimethyltetrahydro-2H-pyran-4-yl)-1-fluoro-7-(2-fluoropyridin-3-yl)-1′-methyl-1′H-spiro[chromeno[2,3-c]pyridine-5,4′-pyrimidin]-6′(5′H)-one]",2,2.2,,,
"CN1C(=O)[C@]2(N=C1N)c1cc(-c3cccnc3F)ccc1Oc1c(F)cc(-c3ccnc(F)c3)cc12 [Example 39, (4S)-2-amino-4′-fluoro-7′-(2-fluoro-3-pyridinyl)-2′-(2-fluoro-4-pyridinyl)-1-methylspiro[imidazole-4,9′-xanthen]-5(1H)-one]",,3.1,,,
"CN1C(=O)C[C@@]2(N=C1N)c1cc(-c3cccnc3F)ccc1Oc1cnc(-c3ccnc(F)c3)cc12 [Example 21-A, (R)-7-(2-Fluoropyridin-3-yl)-3-(2-fluoropyridin-4-yl)-2′-imino-1′-methyl-2′,3′-dihydro-1′H-spiro[chromeno[2,3-c]pyridine-5,4′-pyrimidin]-6′(5′H)-one]",,2380,,,
"CN1C(=O)C[C@]2(N=C1N)c1cc(-c3cccnc3F)ccc1Oc1cnc(-c3ccnc(F)c3)cc12 [Example 21-B, (S)-7-(2-Fluoropyridin-3-yl)-3-(2-fluoropyridin-4-yl)-2′-imino-1′-methyl-2′,3′-dihydro-1′H-spiro[chromeno[2,3-c]pyridine-5,4′-pyrimidin]-6′(5′H)-one]",,99.5,,,
